The numbers were not newly measured in US20060105068A1, “Dietary supplement formulations containing Hoodia gordonii” (priority 2003, published 2006), which cites them from elsewhere.

For data set [1] the following is noted: after fifteen weeks; 1200 calorie/day diet.
For data set [2] the following is noted: United States; therapeutic range; aspirin and associated compounds.
For data set [3] the following is noted: rats.

On to Naringinine [Naringinines], for which, in the data set on cytochrome P450, the “effect on cytochrome P450 enzymes” value was “inhibit”. Consider `CC(=O)OC1CC[C@@]2(C)C(=CC(=O)[C@@H]3[C@@H]2CC[C@]2(C)C(=O)CC[C@@H]32)C1` (stereo partly drawn) [Formula 7-Keto, 3-acetyl-7-oxo-dehydroepiandrosterone], for which, where the note is “8-week treatment period”, the “body weight, body mass index (BMI), and waist and hip circumference versus placebo” value was “statistically significant reductions”; the “tolerability / adverse events” value is “well tolerated and no serious adverse events were reported”. Under “human, in vivo”, the “effect on testosterone levels” value is recorded as “does not increase testosterone levels”. On to `CCN[C@@H](C)Cc1cccc(C(F)(F)F)c1` [dexfenfluramine], for which the weight lost in data set [1] is listed as 15.2+/−9.5 lbs.

For the compound `NC(Cc1cc(I)c(Oc2cc(I)c(O)c(I)c2)c(I)c1)C(=O)O` (stereo not drawn) [throxine], the “reduction in CYP450” value in the data set with cytochrome P450 (when throxine is increased) is 60-80%.

Turning to `CC(=O)Oc1ccccc1C(=O)O` [aspirin], the “people who die each year” value in data set [2] is 7,600. On to `O=C(O[C@@H]1Cc2c(O)cc(O)cc2O[C@@H]1c1cc(O)c(O)c(O)c1)c1cc(O)c(O)c(O)c1` [epigallocatechin gallate], for which the “loss of body weight” value in data set [3] is “up to 21%”. Moreover, the decrease in appetite in data set [3] (after seven days of injections) is recorded as 60%.
